Measured values from patent publication US20180084779A1, “PLANT DISEASE CONTROL AGENT AND USE THEREOF” (NIHON NOHYAKU CO., LTD., priority 2015, published 2018).

Tests used:
[1] = test system: Septoria tritici, KUK-1-21 Strain; test: Test for wheat leaf blotch, fluoroimide and/or DMI agent sprayed on wheat pots, lesion area index 17 days after inoculation; assay type: in vivo; settings: for Controlling effect Combination with fluoroimide / Controlling effect DMI alone: 17 days; for Controlling effect DMI alone: fluoroimide 0 ppm
Protocol: (§1) Test for Wheat Leaf Blotch (Septoria tritici, KUK-1-21 Strain):
(§2) Agrochemical liquids containing a predetermined concentration of fluoroimide and/or a predetermined concentration of each DMI agent were applied to wheat in a predetermined amount with a spray gun. After air drying, a suspension of fungus spore of Septoria tritici adjusted to 1.0×10^7 spores/ml was inoculated by spraying. After that, the wheat pots were kept in a growth chamber under a light condition of at 15° C. 100% RH to encourage the development of the disease. Seventeen days after the inoculation, the lesion area index (0-10) was determined for the evaluation of the control effect.
(§3) Control effect (%)=[(Disease index of no treatment area−Disease index of treatment area)/Disease index of no treatment area]×100 [Formula 1]
(§4) The expected effect (expected value E) by using an active ingredient in combination with each of other active ingredients in the above tests was determined by the following Colby formula (see COLBY, S. R., Weeds 15: 20-22 (1967)).
(§5) E(Expected effect)=(X+Y)−(X×Y/100) [Formula 2]
X=controlling effect of fungicide A alone
Y=controlling effect of fungicide B alone

[2] = test system: Septoria tritici, KUK-1-21 Strain; test: Test for wheat leaf blotch, fluoroimide and/or SDHI agent sprayed on wheat pots, lesion area index 21 days after inoculation; assay type: in vivo; settings: for Control effect Combination with fluoroimide / Control effect SDHI alone: 21 days; for Control effect SDHI alone: fluoroimide 0 ppm
Protocol: as §3, §4, §5, §1
as §2, with “SDHI” for “DMI”, “Twenty-one” for “Seventeen”, “set and” for “determined for”, “controlling effects and expected values are examined in” for “evaluation of”, “same manner as Example 1.” for “control effect.”

[3] = DMI agent 1 ppm + fluoroimide 50 ppm
[4] = DMI agent 1 ppm + fluoroimide 100 ppm
[5] = DMI agent 3 ppm + fluoroimide 50 ppm
[6] = DMI agent 3 ppm + fluoroimide 100 ppm
[7] = DMI agent 10 ppm + fluoroimide 50 ppm
[8] = DMI agent 10 ppm + fluoroimide 100 ppm
[9] = SDHI agent 1 ppm + fluoroimide 50 ppm
[10] = SDHI agent 1 ppm + fluoroimide 100 ppm
[11] = SDHI agent 3 ppm + fluoroimide 50 ppm
[12] = SDHI agent 3 ppm + fluoroimide 100 ppm
[13] = SDHI agent 10 ppm + fluoroimide 50 ppm
[14] = SDHI agent 10 ppm + fluoroimide 100 ppm

Row | Structure (SMILES) | Controlling effect Expected value (Colby) [1, 3] | Controlling effect Combination with fluoroimide [1, 3] | Controlling effect Expected value (Colby) [1, 4] | Controlling effect Combination with fluoroimide [1, 4] | Controlling effect DMI alone ([1]; DMI agent 1 ppm) | Controlling effect Expected value (Colby) [1, 5] | Controlling effect Combination with fluoroimide [1, 5] | Controlling effect Expected value (Colby) [1, 6] | Controlling effect Combination with fluoroimide [1, 6] | Controlling effect DMI alone ([1]; DMI agent 3 ppm) | Controlling effect Expected value (Colby) [1, 7] | Controlling effect Combination with fluoroimide [1, 7] | Controlling effect Expected value (Colby) [1, 8] | Controlling effect Combination with fluoroimide [1, 8] | Controlling effect DMI alone ([1]; DMI agent 10 ppm) | Control effect Expected value (Colby) [2, 9] | Control effect Combination with fluoroimide [2, 9] | Control effect Expected value (Colby) [2, 10] | Control effect Combination with fluoroimide [2, 10] | Control effect SDHI alone ([2]; SDHI agent 1 ppm) | further results
1 | Fc1ccc([C@]2(Cn3cncn3)O[C@H]2c2ccccc2Cl)cc1 (racemic) [epoxiconazole] | 25% | 19% | 50% | 72% | 0% | 63% | 62% | 75% | 83% | 50% | 71% | 84% | 81% | 83% | 61% | – | – | – | – | – | –
2 | Cn1cc(C(=O)Nc2ccc(F)cc2-c2ccc(Cl)c(Cl)c2)c(C(F)F)n1 [bixafen] | – | – | – | – | – | – | – | – | – | – | – | – | – | – | – | 76% | 95% | 81% | 85% | 75% | Control effect Expected value (Colby) [2, 11]: 86%; Control effect Combination with fluoroimide [2, 11]: 100%; Control effect Expected value (Colby) [2, 12]: 89%; Control effect Combination with fluoroimide [2, 12]: 90%; Control effect SDHI alone ([2]; SDHI agent 3 ppm): 85%; Control effect Expected value (Colby) [2, 13]: 100%; Control effect Combination with fluoroimide [2, 13]: 100%; Control effect Expected value (Colby) [2, 14]: 100%; Control effect Combination with fluoroimide [2, 14]: 100%; Control effect SDHI alone ([2]; SDHI agent 10 ppm): 100%
3 | O=C(Nc1ccccc1-c1ccc(Cl)cc1)c1cccnc1Cl [boscalid] | – | – | – | – | – | – | – | – | – | – | – | – | – | – | – | 10% | 15% | 29% | 0% | 5% | Control effect Expected value (Colby) [2, 11]: 19%; Control effect Combination with fluoroimide [2, 11]: 65%; Control effect Expected value (Colby) [2, 12]: 36%; Control effect Combination with fluoroimide [2, 12]: 80%; Control effect SDHI alone ([2]; SDHI agent 3 ppm): 15%; Control effect Expected value (Colby) [2, 13]: 62%; Control effect Combination with fluoroimide [2, 13]: 100%; Control effect Expected value (Colby) [2, 14]: 70%; Control effect Combination with fluoroimide [2, 14]: 95%; Control effect SDHI alone ([2]; SDHI agent 10 ppm): 60%
4 | CC1COC(Cn2cncn2)(c2ccc(Oc3ccc(Cl)cc3)cc2Cl)O1 (stereo not drawn) [difenoconazole] | 25% | 52% | 50% | 94% | 0% | 71% | 89% | 81% | 89% | 61% | 71% | 89% | 81% | 100% | 61% | – | – | – | – | – | –
5 | Cn1cc(C(=O)Nc2ccccc2-c2cc(F)c(F)c(F)c2)c(C(F)F)n1 [fluxapyroxad] | – | – | – | – | – | – | – | – | – | – | – | – | – | – | – | 5% | 15% | 25% | 50% | 0% | Control effect Expected value (Colby) [2, 11]: 95%; Control effect Combination with fluoroimide [2, 11]: 90%; Control effect Expected value (Colby) [2, 12]: 96%; Control effect Combination with fluoroimide [2, 12]: 100%; Control effect SDHI alone ([2]; SDHI agent 3 ppm): 95%; Control effect Expected value (Colby) [2, 13]: 100%; Control effect Combination with fluoroimide [2, 13]: 100%; Control effect Expected value (Colby) [2, 14]: 100%; Control effect Combination with fluoroimide [2, 14]: 100%; Control effect SDHI alone ([2]; SDHI agent 10 ppm): 100%
6 | CC(C)C1C2CCC1c1c(NC(=O)c3cn(C)nc3C(F)F)cccc12 (stereo not drawn) [isopyrazam] | – | – | – | – | – | – | – | – | – | – | – | – | – | – | – | 19% | 60% | 36% | 20% | 15% | Control effect Expected value (Colby) [2, 11]: 76%; Control effect Combination with fluoroimide [2, 11]: 85%; Control effect Expected value (Colby) [2, 12]: 81%; Control effect Combination with fluoroimide [2, 12]: 85%; Control effect SDHI alone ([2]; SDHI agent 3 ppm): 75%; Control effect Expected value (Colby) [2, 13]: 100%; Control effect Combination with fluoroimide [2, 13]: 100%; Control effect Expected value (Colby) [2, 14]: 100%; Control effect Combination with fluoroimide [2, 14]: 100%; Control effect SDHI alone ([2]; SDHI agent 10 ppm): 100%
7 | CC1(C)CCC(Cc2ccc(Cl)cc2)C1(O)Cn1cncn1 (stereo not drawn) [metconazole] | 30% | 68% | 53% | 78% | 6% | 46% | 84% | 64% | 89% | 28% | 92% | 95% | 95% | 89% | 89% | – | – | – | – | – | –
8 | CCCN(CCOc1c(Cl)cc(Cl)cc1Cl)C(=O)n1ccnc1 [prochloraz] | 25% | 57% | 50% | 72% | 0% | 33% | 41% | 56% | 72% | 11% | 30% | 62% | 53% | 67% | 6% | – | – | – | – | – | –
9 | CCCC1COC(Cn2cncn2)(c2ccc(Cl)cc2Cl)O1 (stereo not drawn) [propiconazole] | 25% | 62% | 50% | 72% | 0% | 46% | 89% | 64% | 94% | 28% | 33% | 89% | 56% | 100% | 11% | – | – | – | – | – | –
10 | OC(Cc1ccccc1Cl)(Cn1nc[nH]c1=S)C1(Cl)CC1 (stereo not drawn) [prothioconazole] | 25% | 3% | 50% | 61% | 0% | 25% | 30% | 50% | 72% | 0% | 25% | 73% | 50% | 67% | 0% | – | – | – | – | – | –
11 | CC(C)(C)C(O)(CCc1ccc(Cl)cc1)Cn1cncn1 (stereo not drawn) [tebuconazole] | 30% | 62% | 53% | 67% | 6% | 58% | 68% | 72% | 94% | 44% | 71% | 89% | 81% | 94% | 61% | – | – | – | – | – | –
